The experiment addresses Phospholipase D1 (Homo sapiens) + Phospholipase D1 (Homo sapiens) (UniProt Q13393+Q13393). Kind of experiment: phospholipase D1 inhibition, isolated enzyme – biochemical, Lib32, assay 3A, dose response (AID 624001). Particulars: purified PLD1 enzyme activity assay.

Sequence of Phospholipase D1 (Homo sapiens) + Phospholipase D1 (Homo sapiens) (Q13393 whole entry, looked up): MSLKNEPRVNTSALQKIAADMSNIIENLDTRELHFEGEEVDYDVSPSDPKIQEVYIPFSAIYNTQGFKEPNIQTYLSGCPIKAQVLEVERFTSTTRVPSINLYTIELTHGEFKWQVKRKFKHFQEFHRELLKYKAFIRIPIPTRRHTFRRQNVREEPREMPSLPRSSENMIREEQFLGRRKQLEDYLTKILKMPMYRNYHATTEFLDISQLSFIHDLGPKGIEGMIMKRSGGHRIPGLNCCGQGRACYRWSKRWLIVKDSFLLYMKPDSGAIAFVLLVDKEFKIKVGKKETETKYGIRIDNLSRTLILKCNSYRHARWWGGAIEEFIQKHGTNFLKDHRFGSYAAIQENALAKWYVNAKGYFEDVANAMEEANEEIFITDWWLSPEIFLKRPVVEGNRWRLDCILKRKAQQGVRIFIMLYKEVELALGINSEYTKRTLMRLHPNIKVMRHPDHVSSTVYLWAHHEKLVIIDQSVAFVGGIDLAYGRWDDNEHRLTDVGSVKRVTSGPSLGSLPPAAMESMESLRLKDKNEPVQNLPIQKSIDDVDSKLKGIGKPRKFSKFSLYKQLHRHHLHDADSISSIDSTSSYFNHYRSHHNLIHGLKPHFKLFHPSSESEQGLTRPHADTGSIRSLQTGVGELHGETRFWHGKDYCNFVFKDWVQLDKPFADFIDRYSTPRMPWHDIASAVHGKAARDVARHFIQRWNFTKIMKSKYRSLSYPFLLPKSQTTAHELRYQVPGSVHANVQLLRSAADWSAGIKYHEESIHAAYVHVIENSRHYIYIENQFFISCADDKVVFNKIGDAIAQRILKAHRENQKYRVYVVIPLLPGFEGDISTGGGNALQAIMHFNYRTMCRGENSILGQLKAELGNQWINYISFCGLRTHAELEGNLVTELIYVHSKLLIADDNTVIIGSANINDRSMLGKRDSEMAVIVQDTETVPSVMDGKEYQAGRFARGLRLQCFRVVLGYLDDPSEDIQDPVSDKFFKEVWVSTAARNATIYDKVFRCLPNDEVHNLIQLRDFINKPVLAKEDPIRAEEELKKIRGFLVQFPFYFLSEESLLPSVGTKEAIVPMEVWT
Sequence of Phospholipase D1 (Homo sapiens) + Phospholipase D1 (Homo sapiens) (Q13393 whole entry, looked up): as above

As a reminder, the IC50 is the midpoint of a concentration-inhibition curve. For `COc1cc(C(=O)NCCN2CCC3(CC2)C(=O)NCN3c2cccc(F)c2)cc(OC)c1OC`, the 50% inhibitory concentration (IC50) is 20 µM.

Values taken from PubChem BioAssay AID624001 (Vanderbilt Specialized Chemistry Center, 2012).
